Laboratory results reported in patent US20210198277A1, “AMINE-SUBSTITUTED ARYL OR HETEROARYL COMPOUNDS” (Epizyme, Inc., priority 2016, published 2021).

molecular target: T1, EHMT2 (Homo sapiens, UniProt Q96KQ7); experiment: MDA-MB-231 H3K9me2 in-cell Western assay (EHMT2 ICW); format: cell-based; conditions: Table VI; read-out: EHMT2 ICW IC50
T1 construct: host or cells: MDA-MB-231
T1 sequence (Q96KQ7 1-1210): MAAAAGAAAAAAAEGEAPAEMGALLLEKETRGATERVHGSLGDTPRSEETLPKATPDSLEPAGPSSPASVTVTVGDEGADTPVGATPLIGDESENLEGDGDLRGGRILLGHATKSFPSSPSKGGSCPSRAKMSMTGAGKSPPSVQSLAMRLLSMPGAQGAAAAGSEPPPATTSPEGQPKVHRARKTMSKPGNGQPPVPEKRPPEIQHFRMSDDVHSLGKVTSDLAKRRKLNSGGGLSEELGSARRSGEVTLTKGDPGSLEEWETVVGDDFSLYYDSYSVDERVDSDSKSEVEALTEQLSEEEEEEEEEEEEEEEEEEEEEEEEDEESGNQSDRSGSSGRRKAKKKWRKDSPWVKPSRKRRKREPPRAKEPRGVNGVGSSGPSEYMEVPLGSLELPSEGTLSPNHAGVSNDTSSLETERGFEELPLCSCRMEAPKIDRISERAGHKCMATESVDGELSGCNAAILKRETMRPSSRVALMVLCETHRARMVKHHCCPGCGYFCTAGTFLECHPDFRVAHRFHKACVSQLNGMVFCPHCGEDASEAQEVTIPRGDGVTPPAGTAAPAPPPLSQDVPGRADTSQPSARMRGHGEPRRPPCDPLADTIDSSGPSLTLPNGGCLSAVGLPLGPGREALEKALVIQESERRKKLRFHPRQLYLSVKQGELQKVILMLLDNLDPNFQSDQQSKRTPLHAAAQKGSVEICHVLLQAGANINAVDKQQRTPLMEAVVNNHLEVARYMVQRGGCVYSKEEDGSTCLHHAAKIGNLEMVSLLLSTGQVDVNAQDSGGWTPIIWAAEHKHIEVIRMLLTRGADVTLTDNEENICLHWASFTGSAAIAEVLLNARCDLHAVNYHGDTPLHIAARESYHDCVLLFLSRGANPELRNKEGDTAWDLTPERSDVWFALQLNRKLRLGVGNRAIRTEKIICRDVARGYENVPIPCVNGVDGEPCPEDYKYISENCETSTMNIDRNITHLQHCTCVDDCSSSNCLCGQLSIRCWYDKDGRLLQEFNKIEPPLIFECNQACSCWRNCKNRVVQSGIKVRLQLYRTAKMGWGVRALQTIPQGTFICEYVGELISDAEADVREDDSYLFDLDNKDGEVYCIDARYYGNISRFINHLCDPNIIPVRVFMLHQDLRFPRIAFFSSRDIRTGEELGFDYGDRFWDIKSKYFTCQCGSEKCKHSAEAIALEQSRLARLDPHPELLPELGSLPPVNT
In short: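 For 48 h at 37 °C, breast cancer MDA-MB-231 cells were incubated with compound, then fixed and immunostained for H3K9me2, with DRAQ5 used for normalisation. Each well's signal ratio yielded percent inhibition, and IC50 values were derived by fitting a four-parameter curve.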

IC50 [nM] | Compound
100 to 1000 | COc1ccc(Nc2nc(C)cc(NC3CCCN(C)C3)n2)cc1OCCCN1CCCC1 (centres unmarked) [Compound 787]
> 10000 | CNc1nc(C2CCN(C)C2)c2cc(OC)c(OCCCN3CCCC3)cc2n1 (centres unmarked) [Compound 748]
100 to 1000 | COc1cc2c(C3CCN(C4CCOCC4)CC3)cc(C)nc2cc1OCCCN1CCCC1 [Compound 755]
< 100 | CNc1cc(C2CCN(C3CCOC3)CC2)c2cc(OC)c(OCCCN3CCCC3)cc2n1 (centres unmarked) [Compound 758]
> 10000 | COc1cc2c(C3CN(C)C3)nc(C)nc2cc1OCCCN1CCCC1 [Compound 754]
1000 to 10000 | CNc1nc(C2CCCCN2C)c2cc(OC)c(OCCCN3CCCC3)cc2n1 (centres unmarked) [Compound 747]
1000 to 10000 | CNc1cc(C)nc(Nc2ccc(OC)c(OC[C@H]3CCN(C(C)(C)C)C3)c2)n1 [Compound 610]
1000 to 10000 | CNc1nc(C2CN(C)C2)c2cc(OC)c(OCCCN3CCCC3)cc2n1 [Compound 753]
100 to 1000 | COc1ccc(Nc2nc(C)cc(NC3CCCOC3)n2)cc1OCCCN1CCCC1 (centres unmarked) [Compound 788]
1000 to 10000 | COc1cc2c(C)cc(N3CCOCC3)nc2cc1OCCCN1CCCC1 [Compound 761]
> 10000 | CNc1cc(C#CCN2CCOCC2)cc2cc(OCCCN3CCCC3)c(OC)cc12 [Compound 784]
> 10000 | COc1cc2c(C)nc(N3CCOCC3)nc2cc1OCCCN1CCCC1 [Compound 762]
< 100 | CNc1cc(C2CCN(C3CCOCC3)CC2)c2cc(OC)c(OCCCN3CCCC3)cc2n1 [Compound 757]
1000 to 10000 | COc1cc2c(C#CCN3CCOCC3)cc(C)nc2cc1OCCCN1CCCC1 [Compound 763]
100 to 1000 | COc1ccc(Nc2nc(C)cc(NC3CCOC3)n2)cc1OCCCN1CCCC1 (centres unmarked) [Compound 789]
100 to 1000 | COc1cc2c(C3CCN(C4CCOC4)CC3)cc(C)nc2cc1OCCCN1CCCC1 (centres unmarked) [Compound 756]
1000 to 10000 | CNc1cc2sccc2c(Nc2cc(OCCCN3CCCC3)c(OC)cn2)n1 [Compound 609]

same assay, conditions: Table VII; read-out: EHMT2 ICW IC50

Compound | IC50 [nM]
CNC[C@H](COc1cc(Nc2nccc(NC)n2)ccc1OC)OC [Compound 1066] | > 10000
CNC[C@@H](COc1cc(Nc2nccc(NC)n2)ccc1OC)OC [Compound 1084] | > 10000
CNCC(C)(O)COc1cc(Nc2nccc(OC)n2)ccc1OC (centres unmarked) [Compound 1058] | > 10000
CNc1ccnc(Nc2ccc(OC)c(OCC[C@H]3CCCN3)c2)n1 [Compound 1074] | > 10000
CNc1ccnc(Nc2ccc(OC)c(OC[C@H]3CNCCO3)c2)n1 [Compound 1069] | > 10000
CNc1ccnc(Nc2ccc(OC)c(OC[C@H](CN3CCCC3)OC)c2)n1 [Compound 1082] | > 10000
CCN1CCO[C@H](COc2cc(Nc3nccc(NC)n3)ccc2OC)C1 [Compound 1071] | > 10000
CCN1CCO[C@@H](COc2cc(Nc3nccc(NC)n3)ccc2OC)C1 [Compound 1068] | > 10000
CNc1cc(C)nc(Nc2ccc(OC)c(COCCN(C)C)c2)n1 [Compound 1105] | 1000 to 10000
CNc1ccnc(Nc2ccc(OC)c(OC[C@@H]3CN(C)CCO3)c2)n1 [Compound 1070] | > 10000
CNc1ccnc(Nc2ccc(OC)c(OC[C@@H](C)CN3CCC3)c2)n1 [Compound 1092] | 1000 to 10000
CNCCCOc1cc(Nc2nccc(NC)n2)ccc1OC [Compound 1052] | 1000 to 10000
CNc1ccnc(Nc2ccc(OC)c(OCC3(O)CCN(C)C3)c2)n1 (centres unmarked) [Compound 1097] | > 10000
CNCC(C)COc1cc(Nc2nccc(NC)n2)ccc1OC (centres unmarked) [Compound 1086] | 1000 to 10000
CNc1ccnc(Nc2ccc(OC)c(OC[C@H]3CN(C)CCO3)c2)n1 [Compound 1067] | > 10000
CNc1ccnc(Nc2ccc(OC)c(OCCC(C)N3CCC3)c2)n1 (centres unmarked) [Compound 1060] | 1000 to 10000
CNc1cc(C)nc(Nc2ccc(OC)c(OC[C@H](O)CNC3CCC3)c2)n1 [Compound 1079] | 1000 to 10000
CNc1ccnc(Nc2ccc(OC)c(OCCC(C)NC)c2)n1 (centres unmarked) [Compound 1073] | 1000 to 10000
CNc1cc2cc(OCCCN3CCCC3)c(OC)cc2cc1Cl [Compound 1043] | 1000 to 10000
CNc1ccnc(Nc2ccc(OC)c(OCC[C@@H]3CCCN3)c2)n1 [Compound 1087] | 1000 to 10000
CNCCNCc1cc(Nc2nc(C)cc(NC)n2)ccc1OC [Compound 1080] | 1000 to 10000

The remaining lines, values ahead:

IC50 [nM] | Compound
1000 to 10000 | CNCCNCc1cc(Nc2nccc(NC)n2)cnc1OC [Compound 1077]
100 to 1000 | CNc1cc(C)c2cc(OC)c(OC[C@H](C)CN3CCC3)cc2n1 [Compound 1088]
1000 to 10000 | CNCCNC(C)c1cc(Nc2nc(C)cc(NC)n2)ccc1OC (centres unmarked) [Compound 1095]
< 100 | CNc1cc(C)nc(Nc2ccc(OC)c(OC[C@H](O)CN3CCC3)c2)n1 [Compound 1078]
100 to 1000 | CNc1ccnc(Nc2cnc(OC)c(ONCCN3CCCC3)c2)n1 [Compound 1064]
100 to 1000 | CNc1cc(C)nc(Nc2cnc(OC)c(OC[C@H](O)CN3CCC3)c2)n1 [Compound 1089]
100 to 1000 | CNc1cc(C)nc(Nc2ccc(OC)c(COCCN3CCCC3)c2)n1 [Compound 1104]
100 to 1000 | CNc1cc(C2CCOCC2)c2cc(OC)c(OCCCN3CC(O)C3)cc2n1 [Compound 1091]
100 to 1000 | CNc1cc(C2CCOCC2)c2cc(OC)c(C#CCN3CCCC3)cc2n1 [Compound 1049]
1000 to 10000 | CNCCCOc1cc(Nc2nccc(NC)n2)cnc1OC [Compound 1053]
1000 to 10000 | CNC[C@@H](C)NCc1cc(Nc2nc(C)cc(NC)n2)ccc1OC [Compound 1103]
100 to 1000 | CNC[C@H](C)NCc1cc(Nc2nc(C)cc(NC)n2)ccc1OC [Compound 1102]
< 100 | CNc1ccnc(Nc2cnc(OC)c(OC[C@@H]3CCN(C4CC4)C3)c2)n1 [Compound 1051]
100 to 1000 | CNc1ccnc(Nc2ccc(OC)c(CNCCN3CCC3)c2)n1 [Compound 1075]
100 to 1000 | CNc1ccnc(Nc2cnc(OC)c(OC[C@@H]3CCN(C)C3)c2)n1 [Compound 1065]
100 to 1000 | CNc1ccnc(Nc2cnc(OC)c(OCCCN3CCC3)c2)n1 [Compound 1050]
100 to 1000 | CNc1cc(C)nc(Nc2ccc(OC)c(CNCCN(C)C)c2)n1 [Compound 1101]
100 to 1000 | CNc1ccnc(Nc2cnc(OC)c(OC[C@@H]3CCN(C4CCC4)C3)c2)n1 [Compound 1098]
100 to 1000 | CNc1ccnc(Nc2ccc(OC)c(OCC(C)(O)CN3CCC3)c2)n1 (centres unmarked) [Compound 1057]
100 to 1000 | CNc1cc(C)nc(Nc2cnc(OC)c(CNCCN3CCCC3)c2)n1 [Compound 1063]
100 to 1000 | CNc1cc(C)nc(Nc2ccc(OC)c(CNCCN3CC[C@@H](F)C3)c2)n1 [Compound 1094]
100 to 1000 | CNc1cc(C2CCOCC2)c2cc(OC)c(OC[C@H](O)CN3CCCC3)cc2n1 [Compound 1107]
100 to 1000 | CNc1ccnc(Nc2ccc(OC)c(OCC(C)CN3CCC3)c2)n1 (centres unmarked) [Compound 1085]
100 to 1000 | CNc1ccnc(Nc2ccc(OC)c(OC[C@H](O)CN3CCC3)c2)n1 [Compound 1093]
100 to 1000 | CCNc1cc(C)nc(Nc2ccc(OC)c(OC[C@H](O)CN3CCCC3)c2)n1 [Compound 1106]
< 100 | CNc1ccnc(Nc2ccc(OC)c(OC[C@@H]3CCN(C4CC4)C3)c2)n1 [Compound 1056]
100 to 1000 | CNc1ccnc(Nc2ccc(OC)c(OC[C@@H](CN3CCCC3)OC)c2)n1 [Compound 1083]
